These results are taken from ChEMBL document CHEMBL5346903, “Discovery of novel and bioavailable histone deacetylases and cyclin-dependent kinases dual inhibitor to impair the stemness of leukemia cells” (Eur J Med Chem, 2023).

Data set [1] has as its system U-937. Description: Induction of apoptosis in human U-937 cells assessed as early apoptotic cells at 1 uM incubated for 48 hrs by annexin V-FITC/PI satining based flow cytometry (reference value: 0.945 %). The data set is classed as functional.
For data set [2], the target named is CDK9/cyclin T1 (Homo sapiens) (UniProt O60563+P50750). Description: Inhibition of CDK9/cyclinT1 (unknown origin) at 100 nM preincubated for 20 mins followed by [gamma-33P]ATP addition measured after 120 mins in presence of ATP by Hot-SpotSM kinase assay relative to control. The format is protein-complex assay. The settings on record: time 140.0 min.
The nature of data set [3]: MRT in Sprague-Dawley rat at 5 mg/kg, iv measured upto 6 hrs by LC/MS-MS analysis. The settings on record: in vivo. The data set is classed as ADME, organism-based.
Data set [4] can be described thus: AUC in Sprague-Dawley rat at 25 mg/kg, po measured upto 8 hrs by LC/MS-MS analysis. The data set is classed as ADME, organism-based. The arrangement: time < 8 hrs, dose 25 mg/kg, route po. Conditions: in vivo.
Data set [5] is described as follows: Cmax in Sprague-Dawley rat at 5 mg/kg, iv measured upto 6 hrs by LC/MS-MS analysis. The data set is classed as ADME, organism-based. The arrangement: time < 6 hrs, dose 5 mg/kg, route iv. The settings on record: in vivo.
The nature of data set [6]: Cytotoxicity against human Kasumi 1 cells assessed as CD34positive CD38negative leukemic stem cell-like cells sub-population at 1 uM incubated for 24 hrs by APC/FITC satining based flow cytometry (reference value: 95.8 %). The format is functional. Background: Flow cytometry measures light scatter and fluorescence of single cells or particles in a stream.
Data set [7] deals with HL-60. Description: Induction of apoptosis in human HL-60 cells assessed as early apoptotic cells at 0.6 uM incubated for 48 hrs by annexin V-FITC/PI satining based flow cytometry (reference value: 2.4 %). The format is functional.
Data set [8] deals with U-937. Description: Induction of differentiation in human U-937 cells assessed as increase in CD11b positive cells at 1.2 uM incubated for 48 hrs by FITC staining based flow cytometry (reference value: […] %). The data set is classed as functional.

By inhibition is commonly meant the percentage by which the read-out fell short of the control. Usually MRT stands for a mean duration of stay, worked out from the concentration-time curve. As usually defined, the AUC is concentration integrated over time. A high value points to more exposure. As usually defined, the Cmax is the maximum level reached in the sampled fluid or tissue. For the compound `Nc1ccccc1NC(=O)c1ccc(NC(=O)c2n[nH]cc2NC(=O)c2c(Cl)cccc2Cl)cc1`, the Activity in data set [1] was found to be 1.92%. In addition, the inhibition in data set [2] was 98.3%. In data set [3], this compound gave an MRT of 23.4 min. This compound also displayed an AUC in data set [4] of 2368 ng·h/mL. Moreover, the Cmax in data set [5] is 3.64 µg/mL.

Consider `Nc1cc(F)ccc1NC(=O)c1ccc(CNC(=O)/C=C/c2cccnc2)cc1` [TUCIDINOSTAT], for which the Activity worked out at 88.5% in data set [6], 2.52% in data set [7] and 5% in data set [8].
